This is an account of results in patent US20250082733A1, “m6A mRNA MODIFICATION IN CANCER TREATMENT” (CITY OF HOPE, priority 2017, published 2025).

One assay has as its system PBT707. Nature of the assay: Cell growth assay, MA2-treated GSCs (PBT707). Format: cell-based, human. As to conditions: 48 h. The method, then:
(§1) Treatment of GSCs with the FTO inhibitor MA2: GSCs were seeded at 5×10^4 cells per well in 48-well plates and cultured overnight. These cells were treated with MA2, a chemical inhibitor of FTO (Huang et al., 2015) at 20, 40, 60, 80 μM or vehicle control and cultured for 48 h. Cell number was counted using a hemocytometer. To determine the effect of MA2 on the level of m^6A RNA modification, GSCs were treated with 50 μM MA2 for 48 h. mRNAs were prepared and subjected to m^6A dot blot assay. To test the effect of MA2 in limiting dilution assay, GSCs were treated at 40 μM or vehicle control for two weeks.

In the next assay the test system is mRNA m^6A level in GSCs. Nature of the assay: m6A mRNA dot blot of GSCs treated with MA2. Format: cell-based, human. The settings on record: 50 μM MA2, 48 h, vs vehicle control. On the procedure: m^6A dot blot assay: GSCs were either maintained in sphere cultures or induced into differentiation for 1 week using 0.5% fetal bovine serum (Sigma) together with 1 μM all-trans retinoic acid (Sigma). Total RNAs were isolated from these GSCs using Trizol reagent (Ambion). GSCs were transduced with lentivirus expressing METTL3 or METTL14 shRNA or METTL3 cDNA. Seven days after transduction, total RNAs were extracted. mRNAs were prepared from total RNAs using Dynabeads® mRNA purification kit (Ambion, Catalog #61006). Indicated amount of mRNAs was used for dot blot analysis using an antibody specific for m^6A (1:1,000; Synaptic Systems; Catalog #202003). The intensity of dot blot signal was quantified by Image J.
as §1

The test system of assay [1] is normal neural stem cells (NSC) line NSC006. Nature of the assay: Cell growth assay, control cells (NSC006). Format: cell-based.
For assay [2], the system named is PBT003 cells. Nature of the assay: Cell growth assay, MA2-treated GSCs (PBT003). Format: cell-based, human. The settings on record: PBT003, 60 μM and 80 μM, 48 h. On the procedure: as §1
In another assay the test system is HeLa cells. The experiment in a line: Cell growth assay, control cells (HeLa). Format: cell-based.
Another assay relates to brain astrocytes. Nature of the assay: Cell growth assay, control cells (astrocytes). Format: cell-based.
The test system of assay [3] is ADAM19, EPHA3, and KLF4 expression in PBT003 cells. The experiment in a line: RT-PCR of oncogene expression in GSCs. Format: cell-based, human. The method, then:
RT-PCR: Total RNAs isolated using Trizol reagent (Ambion) were subjected to reverse transcription (RT) performed using the Tetro cDNA synthesis Kit (BioLINE). RT-PCR reactions were performed using SYBR Green Master Mix (Thermo Scientific) on the Step One Plus Real-Time PCR instrument (Applied Biosystems). The primers for RT-PCR include METLL3 (F 5′-TCAGCATCGGAACCAGCAAAG-3′ (SEQ ID NO: 8); R 5′-TCCTGACTGACCTTCTTGCTC-3′ (SEQ ID NO: 9)), METLL14 (F 5′-GTTGGAACATGGATAGCCGC-3′ (SEQ ID NO: 10); R 5′-CAATGCTGTCGGCACTTTCA-3′ (SEQ ID NO: 11)), CD44 (F 5′-TGAGCATCGGATTTGAGACC-3′ (SEQ ID NO: 12); R 5′-TGTCATACTGGGAGGTGTTGG-3′ (SEQ ID NO: 13)), ADAM19 (F 5′-CCTGGATGGACAAGAGGAAG-3′ (SEQ ID NO: 14); R 5′-CTCAGCTTTGAGTGGATGCT-3′ (SEQ ID NO: 15)), EPAH3 (F 5′-GGGCTGGATCTCTTATCCATC-3′ (SEQ ID NO: 16); R 5′-GGACCCAGTTTGTTCTCAGC-3′ (SEQ ID NO: 17)), KLF4 (F 5′-AAGAGTTCCCATCTCAAGGC-3′ (SEQ ID NO: 18); R 5′-CCGTGTGTTTACGGTAGTGC-3′ (SEQ ID NO: 19)), and ACTIN (F 5′-CCGCAAAGACCTGTACGCCAAC-3′ (SEQ ID NO: 20); R 5′-CCAGGGCAGTGATCTCCTTCTG-3′ (SEQ ID NO: 21)). ACTIN was included as the reference gene for normalization. The ΔΔCt method was used for quantification analysis.

Assay [4] relates to GSCs. Nature of the assay: Sphere formation assay of METTL3 or METTL14 KD GSCs with MA2. Format: cell-based, human. As to conditions: together with MA2. The method, then:
Sphere formation assay: The sphere formation assay was performed as previously described (Cui et al., 2016). Briefly, three days after viral transduction, the transduced cells were seeded at 1 cell per well in 96-well plates (for those associated with the limiting dilution assay) or 100 cells per well in 48-well plates and cultured for 2 weeks. The sphere number was counted under microscope. The sphere formation rate was defined as the percentage of sphere-forming cells out of the number of starting cells.

Assay [5] has as its system GSCs. The experiment in a line: Limiting dilution assay of GSCs treated with MA2. Format: cell-based, human. As to conditions: 40 μM, two weeks, vs control cells. On the procedure: Limiting dilution assay: GSCs were transduced with relevant shRNA or METTL3-expressing lentivirus. The transduced GSCs were seeded at 1, 5, 10, 20, 50 and 100 cells per well into 96-well plates. The number of neurospheres in each well was counted two weeks after seeding cells. Extreme limiting dilution analysis was performed using software available at http://bioinf.wehi.edu.au/software/elda.
as §1

The next assay has as its system PBT726. Nature of the assay: Cell growth assay, MA2-treated GSCs (PBT726). As to conditions: 48 h. Format: cell-based, human. The method, then: as §1
For assay [6], the system named is PBT003 cells. Nature of the assay: Intratumoral MA2 in PBT003-grafted NSG mice. Format: in vivo. The settings on record: vs vehicle control. On the procedure:
Introcranial delivery of the FTO inhibitor MA2: PBT003 cells (2×10^5) transduced with luciferase expressing lentivirus were intracranially transplanted into the frontal lobe of NSG mice at the same coordinates as described above. One week after transplantation, tumors were detected by bioluminescence imaging and mice were treated with MA2 (5 μl of 600 μM MA2 in 1% DMSO in PBS per mouse) or vehicle control by intratumoral injection once a week for four weeks. Tumor growth was monitored by bioluminescence imaging every week for six weeks. The bioluminescence intensity was quantified.
To test the effect of the FTO inhibitor on GSC-initiated tumorigenesis, PBT003-grafted mice were treated with the selective FTO inhibitor MA2 intratumorally once a week for four weeks (FIG. 11d). Tumor formation was monitored by bioluminescence xenogen imaging.

The test system of the next assay is PBT111. The experiment in a line: Cell growth assay, MA2-treated GSCs (PBT111). Format: cell-based, human. The settings on record: 48 h. On the procedure:
as §1

A further assay concerns the target FTO (Homo sapiens, UniProt Q9C0B1). As to conditions: Huang et al., 2015; cited from earlier work.

FTO, sequence (Q9C0B1 whole entry): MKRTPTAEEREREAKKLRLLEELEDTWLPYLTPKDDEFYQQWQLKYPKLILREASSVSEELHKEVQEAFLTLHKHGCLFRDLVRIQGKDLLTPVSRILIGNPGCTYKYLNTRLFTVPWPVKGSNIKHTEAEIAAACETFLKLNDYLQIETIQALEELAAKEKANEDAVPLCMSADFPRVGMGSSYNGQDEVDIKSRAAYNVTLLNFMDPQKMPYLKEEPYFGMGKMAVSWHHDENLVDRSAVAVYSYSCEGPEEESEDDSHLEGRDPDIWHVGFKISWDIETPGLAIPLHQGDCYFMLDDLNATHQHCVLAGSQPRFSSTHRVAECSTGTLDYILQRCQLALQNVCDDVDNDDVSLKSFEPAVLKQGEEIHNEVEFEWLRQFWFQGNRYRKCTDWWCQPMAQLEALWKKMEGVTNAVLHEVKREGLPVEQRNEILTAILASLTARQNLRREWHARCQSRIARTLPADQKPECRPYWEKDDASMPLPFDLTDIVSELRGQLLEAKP

Consider `CCOC(=O)c1ccccc1Nc1c(Cl)ccc(C)c1Cl` [MA2, ethyl ester form of meclofenamic acid (MA)], for which the cell growth result with PBT707 (PBT707, 40 μM) is “suppressed the growth”; in the assay with PBT707 (PBT707, 60 μM and 80 μM) it was “substantial inhibitory effect”; in assay [1] (NSC006, up to 60 μM), “no substantial effect”; in [1] (NSCs, 80 μM), “Mild effect”; with PBT003 cells [2], “dramatic growth inhibitory effect”; in the assay with HeLa cells (80 μM) it was “Mild effect”. The cell growth result is recorded as “no substantial effect” with HeLa cells (up to 60 μM); “Mild effect” in the assay with brain astrocytes (astrocytes, 80 μM); “no substantial effect” in the assay on brain astrocytes (brain astrocytes, up to 60 μM); “suppressed the growth” in the assay with PBT726 (PBT726, 40 μM); “substantial inhibitory effect” in the assay on PBT726 (PBT726, 60 μM and 80 μM); “inhibited the growth” with PBT111 (PBT111, 20 μM and 40 μM). For the same compound, the cell growth result in the assay on PBT111 (PBT111, 60 μM and 80 μM) is “substantial inhibitory effect”. In the assay with mRNA m^6A level in GSCs, the “mRNA m^6A level” value is “substantial increase”. Further, the “expression of ADAM19, EPHA3, and KLF4” value in assay [3] was “decreased expression”. The sphere formation rate result with GSCs [4] is listed as “reversed the effect of elevated sphere formation rate”. In the assay with GSCs [5], the “self-renewal of GSCs (stem cell frequency)” value is reported as “dramatically inhibited the self-renewal”. Besides, the tumor luciferase activity entry with PBT003 cells [6] (4 or 5 weeks after compound treatment) is “significant decrease”. Also, the “tumor size by bioluminescence xenogen imaging” value in the assay on PBT003 cells [6] (intratumoral, once a week for four weeks) is given as “much smaller tumors”. Also, the survival entry in the assay on PBT003 cells [6] (log-rank test) is on record as “substantially prolonged survival”. In addition, on FTO, the FTO inhibition result is recorded as “selective inhibitor of FTO”.
